According to patent US7928225B2, “Oxabispidine compounds for the treatment of cardiac arrhythmias” (AstraZeneca AB, priority 2005, dated 2011):

Columns and labels:
HERG channel = biological target: T1, HERG channel (Homo sapiens, UniProt Q12809); assay: Test B: Rb+-efflux assay for detection of HERG channel blockers; format: cell-based; details: depolarisation-induced Rb+-efflux from Chinese hamster ovary cells stably expressing the HERG-channel
T1 construct: expressed in transfected cells
Experimental: Rb^+-Efflux Assay for Detection of HERG Channel Blockers
The human ether-a-go-go related gene (HERG) encodes the voltage-gated K^+ channel underlying the cardiac rapid delayed rectifier current IKr. The IC50 value for HERG channel blockade was determined using a high throughput functional assay based on depolarisation-induced Rb^+-efflux from Chinese hamster ovary cells stably expressing the HERG-channel.
Cells were grown in Ham F12 (Life Technologies 31765-027) supplemented with 10% FBS and 0.6 mg/mL hygromycin B and were routinely passaged twice-weekly. For experimental studies, cells were plated at a density of 15,000 cells/well in Falcon, 384-well tissue culture-treated black-walled clear-bottomed plates and were thereafter incubated overnight at 37° C. in a cell culture incubator.
Following incubating overnight, cell plates were washed and a Rb^+-Load buffer (a physiological buffer containing Rb^+) was added. Cell plates were then incubated for 3 hours and were thereafter washed. Following this wash, the test compounds were added. The cell plates were then incubated for another 10 minutes and, following this incubation period, external K^+ concentration was increased in order to depolarize the cells and activate HERG channels. […]
Compound activity was expressed as: […]

[1] = test system: anaesthetised guinea pigs; assay: Test A: Primary electrophysiological effects in anaesthetised guinea pigs (MAP duration); format: in vivo, guinea pig; details: infusion into jugular vein, MAP duration at 75 percent repolarization during pacing, from mean dose-response curve
Experimental: Primary Electrophysiological Effects in Anaesthetised Guinea Pigs
Guinea pigs weighing between 500 and 1000 g were used. The animals were housed for at least one week before the experiment and had free access to food and tap water during that period.
Anaesthesia was induced by an intraperitoneal injection of pentobarbital (50 to 60 mg/kg) and catheters were introduced into one carotid artery (for blood pressure recording and blood sampling) and into one jugular vein (for drug infusions). Needle electrodes were placed on the limbs for recording of ECGs (lead II). […]
The left ventricular epicardium was exposed by a left-sided thoracotomy, and a custom-designed suction electrode for recording of the monophasic action potential (MAP) was applied to the left ventricular free wall. The electrode was kept in position as long as an acceptable signal could be recorded, otherwise it was moved to a new position. […]
Of the numerous variables measured in this analysis, three were selected as the most important for comparison and selection of active compounds. […] Systolic and diastolic blood pressure were measured in order to judge the haemodynamic status of the anaesthetised animal. […]
The mean of the two control recordings was set to zero and the effects recorded after consecutive doses of test substance were expressed as percentage changes from this value. […]

T1 sequence (Q12809 whole entry): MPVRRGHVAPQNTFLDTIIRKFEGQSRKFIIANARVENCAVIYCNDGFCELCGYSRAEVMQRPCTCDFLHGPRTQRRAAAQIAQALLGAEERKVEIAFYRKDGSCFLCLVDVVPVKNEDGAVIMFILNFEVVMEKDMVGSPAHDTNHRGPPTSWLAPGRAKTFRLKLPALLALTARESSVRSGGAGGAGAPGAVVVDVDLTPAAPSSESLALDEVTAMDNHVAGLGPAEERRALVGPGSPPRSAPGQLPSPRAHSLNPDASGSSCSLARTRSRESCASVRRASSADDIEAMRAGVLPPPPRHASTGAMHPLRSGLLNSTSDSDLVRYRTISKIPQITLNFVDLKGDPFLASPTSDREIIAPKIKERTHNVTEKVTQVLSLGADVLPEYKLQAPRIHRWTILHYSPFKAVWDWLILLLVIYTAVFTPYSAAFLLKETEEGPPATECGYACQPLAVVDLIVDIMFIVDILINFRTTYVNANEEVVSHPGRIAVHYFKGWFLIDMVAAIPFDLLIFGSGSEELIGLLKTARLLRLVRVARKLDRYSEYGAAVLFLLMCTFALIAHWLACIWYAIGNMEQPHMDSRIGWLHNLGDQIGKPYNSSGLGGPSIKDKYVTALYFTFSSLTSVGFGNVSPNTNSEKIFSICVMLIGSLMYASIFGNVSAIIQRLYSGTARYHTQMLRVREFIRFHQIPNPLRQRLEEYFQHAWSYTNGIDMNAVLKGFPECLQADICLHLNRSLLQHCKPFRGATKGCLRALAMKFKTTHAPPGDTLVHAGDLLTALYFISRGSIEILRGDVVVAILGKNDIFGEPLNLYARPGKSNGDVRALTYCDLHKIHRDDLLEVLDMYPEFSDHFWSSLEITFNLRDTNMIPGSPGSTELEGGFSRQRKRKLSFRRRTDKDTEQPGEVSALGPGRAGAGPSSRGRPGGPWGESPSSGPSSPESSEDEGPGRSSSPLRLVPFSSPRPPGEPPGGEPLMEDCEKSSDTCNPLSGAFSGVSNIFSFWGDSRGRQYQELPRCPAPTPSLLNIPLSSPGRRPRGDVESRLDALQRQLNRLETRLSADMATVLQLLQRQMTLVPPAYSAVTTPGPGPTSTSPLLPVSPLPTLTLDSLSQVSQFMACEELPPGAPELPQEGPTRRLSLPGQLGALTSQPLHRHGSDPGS

Compound: CC(C)(C)OC(=O)NCCN1CC2CN(CCOc3ccc(C#N)cc3F)CC(C1)O2 [Example 2, tert-Butyl (2-{7-[2-(4-cyano-2-fluorophenoxy)ethyl]-9-oxa-3,7-diazabicyclo-[3.3.1]non-3-yl}ethyl)carbaamate]
- pIC50 for HERG channel blockade (HERG channel): 5.0
- D10 (cumulative dose prolonging the MAP duration by 10% from the baseline; index of class III electrophysiological potency) [1]: 6.3

Compound: CC(C)(C)OC(=O)NCCCN1CC2CN(CCCOc3ccc(C#N)cc3)CC(C1)O2 [Example 5]
- pIC50 for HERG channel blockade (HERG channel): 6.19
- D10 (cumulative dose prolonging the MAP duration by 10% from the baseline; index of class III electrophysiological potency) [1]: 6.8
